{"source": "paper PMC9898036", "about": "“VIP152 is a selective CDK9 inhibitor with pre-clinical in vitro and in vivo efficacy in chronic lymphocytic leukemia” (Leukemia, 2022)", "key": {"MKNK1": {"biological_target": "MKNK1 (Homo sapiens, UniProt Q9BUB5)", "assay": "KINOMEscan: MKNK1", "type": "binding", "settings": "1000 nM, read-out: Percent Control"}, "[1]": {"test_system": "primary CLL samples with human stromal cell line (HS-5) co-culture", "assay": "Annexin V/PI flow cytometry, four-hour treatment with washout, HS-5 stromal co-culture", "type": "cell-based", "settings": "relapse/refractory samples; four-hour exposure, after 24 h"}, "EPHB1": {"biological_target": "EPHB1 (Homo sapiens, UniProt P54762)", "assay": "KINOMEscan: EPHB1", "type": "binding", "settings": "1000 nM, read-out: Percent Control"}, "LIMK2": {"biological_target": "LIMK2 (Homo sapiens, UniProt P53671)", "assay": "KINOMEscan: LIMK2", "type": "binding", "settings": "1000 nM, read-out: Percent Control"}, "BRSK2": {"biological_target": "BRSK2 (Homo sapiens, UniProt Q8IWQ3)", "assay": "KINOMEscan: BRSK2", "type": "binding", "settings": "1000 nM, read-out: Percent Control"}, "TIE1": {"biological_target": "TIE1 (Homo sapiens, UniProt P35590)", "assay": "KINOMEscan: TIE1", "type": "binding", "settings": "100 nM, read-out: Percent Control"}, "[2]": {"biological_target": "RSK4(Kin.Dom.1-N-terminal) (Homo sapiens, UniProt Q9UK32)", "assay": "KINOMEscan: RSK4(Kin.Dom.1-N-terminal)", "type": "binding", "settings": "100 nM, read-out: Percent Control"}, "[3]": {"biological_target": "Platelet Activating Factor (PAF) (Homo sapiens, UniProt P25105)", "sequence (P25105 whole entry)": "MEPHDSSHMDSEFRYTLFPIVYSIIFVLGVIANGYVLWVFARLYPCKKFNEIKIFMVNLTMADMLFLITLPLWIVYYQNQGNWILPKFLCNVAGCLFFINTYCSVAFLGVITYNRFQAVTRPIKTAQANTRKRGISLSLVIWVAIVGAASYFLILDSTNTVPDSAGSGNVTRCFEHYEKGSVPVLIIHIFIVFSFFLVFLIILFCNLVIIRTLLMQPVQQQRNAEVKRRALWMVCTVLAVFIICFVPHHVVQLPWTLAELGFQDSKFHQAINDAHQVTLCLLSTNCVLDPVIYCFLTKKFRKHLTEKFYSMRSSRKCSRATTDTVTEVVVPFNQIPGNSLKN", "assay": "Eurofins Diversity Panel", "type": "binding", "settings": "hum, Conc. 10 μM"}, "HCK": {"biological_target": "HCK (Homo sapiens, UniProt P08631)", "sequence (P08631 whole entry)": "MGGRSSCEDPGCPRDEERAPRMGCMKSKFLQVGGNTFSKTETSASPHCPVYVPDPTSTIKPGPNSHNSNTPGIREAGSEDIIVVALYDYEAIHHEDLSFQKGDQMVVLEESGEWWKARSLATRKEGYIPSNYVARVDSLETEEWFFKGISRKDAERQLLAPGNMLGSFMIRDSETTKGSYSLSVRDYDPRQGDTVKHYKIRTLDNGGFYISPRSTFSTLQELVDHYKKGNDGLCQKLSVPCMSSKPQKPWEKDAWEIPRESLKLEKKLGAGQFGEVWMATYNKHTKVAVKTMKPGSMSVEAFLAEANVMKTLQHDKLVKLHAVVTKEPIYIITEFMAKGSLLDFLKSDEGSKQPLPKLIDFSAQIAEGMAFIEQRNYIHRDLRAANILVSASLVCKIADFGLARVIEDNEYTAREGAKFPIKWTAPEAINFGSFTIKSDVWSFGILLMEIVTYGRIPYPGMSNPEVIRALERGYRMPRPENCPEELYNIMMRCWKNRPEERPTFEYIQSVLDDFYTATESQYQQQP", "assay": "KINOMEscan: HCK", "type": "binding", "settings": "1000 nM, read-out: Percent Control"}, "MUSK": {"biological_target": "MUSK (Homo sapiens, UniProt O15146)", "sequence (O15146 24-869)": "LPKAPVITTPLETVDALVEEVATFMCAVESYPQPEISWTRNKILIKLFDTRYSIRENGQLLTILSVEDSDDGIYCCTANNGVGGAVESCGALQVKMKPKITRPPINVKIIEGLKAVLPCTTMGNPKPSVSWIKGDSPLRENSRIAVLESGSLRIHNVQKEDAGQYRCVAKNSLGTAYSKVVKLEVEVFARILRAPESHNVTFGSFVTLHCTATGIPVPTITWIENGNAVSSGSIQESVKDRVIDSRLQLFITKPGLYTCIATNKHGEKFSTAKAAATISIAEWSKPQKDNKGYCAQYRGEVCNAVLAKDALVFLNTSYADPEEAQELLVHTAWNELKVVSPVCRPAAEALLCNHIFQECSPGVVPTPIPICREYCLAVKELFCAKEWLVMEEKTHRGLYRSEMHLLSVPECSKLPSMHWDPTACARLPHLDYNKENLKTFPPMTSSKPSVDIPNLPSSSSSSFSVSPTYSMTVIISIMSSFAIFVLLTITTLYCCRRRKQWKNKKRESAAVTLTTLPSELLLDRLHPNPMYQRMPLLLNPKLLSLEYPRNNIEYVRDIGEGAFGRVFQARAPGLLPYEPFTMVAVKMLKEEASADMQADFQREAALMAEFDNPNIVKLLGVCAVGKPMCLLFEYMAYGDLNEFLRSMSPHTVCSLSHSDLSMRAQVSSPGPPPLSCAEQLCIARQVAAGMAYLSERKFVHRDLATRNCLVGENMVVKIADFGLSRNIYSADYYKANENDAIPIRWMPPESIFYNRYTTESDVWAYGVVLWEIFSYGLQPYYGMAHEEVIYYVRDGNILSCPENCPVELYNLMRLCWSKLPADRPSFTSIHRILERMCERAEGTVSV", "assay": "KINOMEscan: MUSK", "type": "binding", "settings": "1000 nM, read-out: Percent Control"}, "MLK1": {"biological_target": "MLK1 (Homo sapiens, UniProt P80192)", "assay": "KINOMEscan: MLK1", "type": "binding", "settings": "1000 nM, read-out: Percent Control"}, "S6K1": {"biological_target": "S6K1 (Homo sapiens, UniProt P23443)", "assay": "KINOMEscan: S6K1", "type": "binding", "settings": "100 nM, read-out: Percent Control"}, "MAK": {"biological_target": "MAK (Homo sapiens, UniProt P20794)", "assay": "KINOMEscan: MAK", "type": "binding", "settings": "1000 nM, read-out: Percent Control"}, "KIT(V559D,V654A)": {"biological_target": "KIT(V559D,V654A) (Homo sapiens, UniProt P10721, V559D/V654A)", "sequence (P10721 26-976 V559D/V654A)": "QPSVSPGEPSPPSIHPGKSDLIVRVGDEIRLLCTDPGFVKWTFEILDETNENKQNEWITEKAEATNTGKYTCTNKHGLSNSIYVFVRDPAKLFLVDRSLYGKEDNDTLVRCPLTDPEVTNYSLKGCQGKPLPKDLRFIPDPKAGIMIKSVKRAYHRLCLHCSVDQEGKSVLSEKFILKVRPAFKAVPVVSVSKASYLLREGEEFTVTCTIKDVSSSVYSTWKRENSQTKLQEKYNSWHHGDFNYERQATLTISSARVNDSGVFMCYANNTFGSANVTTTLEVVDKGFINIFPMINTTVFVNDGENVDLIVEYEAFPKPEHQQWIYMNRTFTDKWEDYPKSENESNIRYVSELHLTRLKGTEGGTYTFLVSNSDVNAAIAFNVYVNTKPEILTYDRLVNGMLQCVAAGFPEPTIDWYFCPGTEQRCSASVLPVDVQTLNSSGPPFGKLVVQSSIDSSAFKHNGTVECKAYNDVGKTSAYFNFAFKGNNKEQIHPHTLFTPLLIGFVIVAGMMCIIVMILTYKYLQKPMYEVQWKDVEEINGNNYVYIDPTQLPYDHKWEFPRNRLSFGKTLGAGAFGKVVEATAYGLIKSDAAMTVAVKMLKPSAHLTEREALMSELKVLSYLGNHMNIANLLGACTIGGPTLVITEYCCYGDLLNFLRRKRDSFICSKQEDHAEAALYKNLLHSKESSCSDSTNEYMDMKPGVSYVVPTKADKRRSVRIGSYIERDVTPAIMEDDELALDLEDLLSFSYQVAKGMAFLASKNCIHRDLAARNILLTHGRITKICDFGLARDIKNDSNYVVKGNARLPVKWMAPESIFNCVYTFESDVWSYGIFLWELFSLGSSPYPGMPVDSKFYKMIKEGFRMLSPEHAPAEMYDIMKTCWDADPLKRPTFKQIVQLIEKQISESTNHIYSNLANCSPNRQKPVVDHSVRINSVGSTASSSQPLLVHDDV", "assay": "KINOMEscan: KIT(V559D,V654A)", "type": "binding", "settings": "1000 nM, read-out: Percent Control"}, "AKT1": {"biological_target": "AKT1 (Homo sapiens, UniProt P31749)", "assay": "KINOMEscan: AKT1", "type": "binding", "settings": "1000 nM, read-out: Percent Control"}, "GSK3α": {"biological_target": "GSK3α (Homo sapiens, UniProt P49840)", "assay": "HotSpot radiometric kinase assay", "type": "biochemical", "parameters": "purchased ReactionBio", "settings": "10-dose series from 0.5 nM to 10 µM; vs dinaciclib, KB-0742, atuveciclib", "method": "(§1) We next compared VIP152 to other CDK inhibitors currently in development. […] The compounds were tested in a 10-dose series from 0.5 nM to 10 µM against CDK9 in complex with Cyclin T1/T2/K, CDK7/Cyclin H, and GSK3α/β.\n(§2) Kinomescan Kinase Profiling Assay\n(§3) Kinomescan Assay was performed at DiscoverRX and described in Fabian, et al. 2005, Nat.\n(§4) Biotechnol. In brief, kinases were produced and subsequently tagged with DNA for qPCR detection.\n(§5) Streptavidin-coated magnetic beads were bound to biotinylated kinase ligands to serve as a solid support.\n(§6) VIP152 was dissolved in DMSO and tested across a 10 serial threefold dilution set and compared to a test […]\n(§7) compound and a DMSO control.\n(§8) Kinome map was produced via TreeSpot\n(§9) Analysis from DiscoverRX.\n(§10) HotSpot Kinase Assay Protocol\n(§11) Compounds tested via HotSpot Kinase Assay were sent to ReactionBio for the experiment. The […]\n(§12) Kinase substrate was added to reaction buffer (20 mM Hepes (pH 7.5), 10 mM MgCl2, 1 mM EGTA, 0.01% Brij35, 0.02 mg/ml BSA, 0.1 mM Na3VO4, 2 mM DTT, 1% DMSO). Cofactors and kinases were gently added to the reaction buffer. Compounds to be tested were dissolved in 100% DMSO and were delivered into the kinase reaction mixture by Acoustic technology (Echo550; nanoliter range) and incubated for 20 min at room temperature. […] Kinase activity was detected by P81 filter-binding method. […]"}, "CDK7/Cyclin H": {"biological_target": "CDK7/Cyclin H (Homo sapiens, UniProt P50613)", "sequence (P50613 whole entry)": "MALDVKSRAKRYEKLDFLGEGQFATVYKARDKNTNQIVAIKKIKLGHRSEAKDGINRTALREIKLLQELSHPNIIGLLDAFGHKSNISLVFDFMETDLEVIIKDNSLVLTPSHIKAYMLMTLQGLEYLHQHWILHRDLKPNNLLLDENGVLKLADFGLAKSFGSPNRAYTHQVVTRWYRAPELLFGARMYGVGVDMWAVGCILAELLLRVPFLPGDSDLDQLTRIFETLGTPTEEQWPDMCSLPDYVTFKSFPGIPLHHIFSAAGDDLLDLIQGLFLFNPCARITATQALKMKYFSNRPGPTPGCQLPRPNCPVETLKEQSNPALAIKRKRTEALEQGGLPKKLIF", "sequence (P51946 whole entry partner)": "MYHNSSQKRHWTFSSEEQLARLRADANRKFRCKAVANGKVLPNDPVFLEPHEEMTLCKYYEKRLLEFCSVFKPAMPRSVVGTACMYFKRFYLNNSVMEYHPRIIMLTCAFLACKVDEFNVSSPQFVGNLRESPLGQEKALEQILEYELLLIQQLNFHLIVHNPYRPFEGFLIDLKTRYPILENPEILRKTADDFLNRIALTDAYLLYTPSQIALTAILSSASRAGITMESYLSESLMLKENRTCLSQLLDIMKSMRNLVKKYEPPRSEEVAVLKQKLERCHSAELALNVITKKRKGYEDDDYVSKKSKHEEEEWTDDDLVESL", "sequence (P51948 whole entry partner)": "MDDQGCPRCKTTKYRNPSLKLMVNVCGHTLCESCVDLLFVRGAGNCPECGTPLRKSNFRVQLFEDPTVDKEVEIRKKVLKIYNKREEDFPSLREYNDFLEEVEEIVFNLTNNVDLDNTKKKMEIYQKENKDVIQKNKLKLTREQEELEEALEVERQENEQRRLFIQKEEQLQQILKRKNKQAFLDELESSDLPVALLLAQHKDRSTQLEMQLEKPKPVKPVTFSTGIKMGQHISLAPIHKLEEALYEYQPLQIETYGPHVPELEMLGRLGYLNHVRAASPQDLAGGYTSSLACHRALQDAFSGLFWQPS", "assay": "HotSpot radiometric kinase assay", "type": "biochemical", "parameters": "purchased ReactionBio", "method": "as §1, §2, §3, §4, §5, §6, §7, §8, §9, §10, §11, §12"}, "RET(V804L)": {"biological_target": "RET(V804L) (Homo sapiens, UniProt P07949, V804L)", "assay": "KINOMEscan: RET(V804L)", "type": "binding", "settings": "100 nM, read-out: Percent Control"}, "AAK1": {"biological_target": "AAK1 (Homo sapiens, UniProt Q2M2I8)", "assay": "KINOMEscan: AAK1", "type": "binding", "settings": "1000 nM, read-out: Percent Control"}, "hERG potassium channel": {"biological_target": "hERG potassium channel (Homo sapiens, UniProt Q12809)", "sequence (Q12809 whole entry)": "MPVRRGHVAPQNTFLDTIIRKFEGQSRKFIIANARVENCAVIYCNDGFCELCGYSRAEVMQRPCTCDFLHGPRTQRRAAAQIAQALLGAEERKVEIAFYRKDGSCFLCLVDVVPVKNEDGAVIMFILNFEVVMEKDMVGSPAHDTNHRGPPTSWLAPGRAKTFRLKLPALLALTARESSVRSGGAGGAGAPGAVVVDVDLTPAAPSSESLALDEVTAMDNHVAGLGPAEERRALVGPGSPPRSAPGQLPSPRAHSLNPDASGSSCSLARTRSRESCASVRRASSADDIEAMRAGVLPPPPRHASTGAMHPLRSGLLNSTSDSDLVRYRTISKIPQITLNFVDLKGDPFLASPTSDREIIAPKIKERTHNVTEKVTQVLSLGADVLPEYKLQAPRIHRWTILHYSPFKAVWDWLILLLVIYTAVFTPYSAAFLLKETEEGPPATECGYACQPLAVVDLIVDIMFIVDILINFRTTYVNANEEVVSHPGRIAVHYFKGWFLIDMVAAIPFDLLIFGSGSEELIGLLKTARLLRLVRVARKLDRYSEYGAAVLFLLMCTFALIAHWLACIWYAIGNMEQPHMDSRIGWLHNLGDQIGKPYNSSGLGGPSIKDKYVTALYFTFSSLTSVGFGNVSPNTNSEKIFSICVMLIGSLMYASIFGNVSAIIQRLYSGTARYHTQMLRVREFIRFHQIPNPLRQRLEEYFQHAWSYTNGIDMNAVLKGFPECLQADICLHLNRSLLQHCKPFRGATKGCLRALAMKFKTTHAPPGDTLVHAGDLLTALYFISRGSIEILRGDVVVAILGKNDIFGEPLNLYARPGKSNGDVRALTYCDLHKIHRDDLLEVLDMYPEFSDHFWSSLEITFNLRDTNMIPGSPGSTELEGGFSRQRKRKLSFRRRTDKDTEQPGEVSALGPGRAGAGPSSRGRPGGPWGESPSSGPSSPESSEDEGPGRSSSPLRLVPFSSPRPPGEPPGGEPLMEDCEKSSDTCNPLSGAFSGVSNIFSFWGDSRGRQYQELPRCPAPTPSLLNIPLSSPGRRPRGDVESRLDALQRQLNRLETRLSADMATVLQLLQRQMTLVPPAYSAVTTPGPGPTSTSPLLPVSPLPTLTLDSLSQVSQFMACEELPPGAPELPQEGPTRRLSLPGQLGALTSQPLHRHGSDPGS", "assay": "Eurofins Diversity Panel", "type": "binding", "settings": "hum, Conc. 10 μM"}, "FYN": {"biological_target": "FYN (Homo sapiens, UniProt P06241)", "assay": "KINOMEscan: FYN", "type": "binding", "settings": "1000 nM, read-out: Percent Control"}, "Phorbol Ester": {"test_system": "Phorbol Ester", "assay": "Eurofins Diversity Panel", "type": "binding", "settings": "mouse, Conc. 10 μM"}, "MST2": {"biological_target": "MST2 (Homo sapiens, UniProt Q13188)", "assay": "KINOMEscan: MST2", "type": "binding", "settings": "1000 nM, read-out: Percent Control"}}}
{"smiles": "COc1cc(F)ccc1-c1cc(Nc2cc(CS(C)(=N)=O)ccn2)ncc1F", "note": "(centres unmarked) [VIP152]", "values": [{"measurement": "remaining binding at 1 µM", "setting": "MKNK1", "value": 98, "unit": "%"}, {"measurement": "apoptosis and stromal protection", "setting": "[1]", "value": "induce significant apoptosis after 24 h and overcome stromal protection"}, {"measurement": "remaining binding at 1 µM", "setting": "EPHB1", "value": 99, "unit": "%"}, {"measurement": "remaining binding at 1 µM", "setting": "LIMK2", "value": 91, "unit": "%"}, {"measurement": "remaining binding at 1 µM", "setting": "BRSK2", "value": 100, "unit": "%"}, {"measurement": "remaining binding at 0.1 µM", "setting": "TIE1", "value": 100, "unit": "%"}, {"measurement": "remaining binding at 0.1 µM", "setting": "[2]", "value": 100, "unit": "%"}, {"measurement": "inhibition at 10 µM", "setting": "[3]", "value": 6, "unit": "%"}, {"measurement": "remaining binding at 1 µM", "setting": "HCK", "value": 82, "unit": "%"}, {"measurement": "remaining binding at 1 µM", "setting": "MUSK", "value": 58, "unit": "%"}, {"measurement": "remaining binding at 1 µM", "setting": "MLK1", "value": 76, "unit": "%"}, {"measurement": "remaining binding at 0.1 µM", "setting": "S6K1", "value": 96, "unit": "%"}, {"measurement": "remaining binding at 1 µM", "setting": "MAK", "value": 84, "unit": "%"}, {"measurement": "remaining binding at 1 µM", "setting": "KIT(V559D,V654A)", "value": 100, "unit": "%"}, {"measurement": "remaining binding at 1 µM", "setting": "AKT1", "value": 99, "unit": "%"}, {"measurement": "potency versus the other inhibitors tested", "setting": "GSK3α", "value": "higher potency"}, {"measurement": "IC50", "setting": "CDK7/Cyclin H", "value": "> 10", "unit": "µM"}, {"measurement": "remaining binding at 0.1 µM", "setting": "RET(V804L)", "value": 100, "unit": "%"}, {"measurement": "remaining binding at 1 µM", "setting": "AAK1", "value": 47, "unit": "%"}, {"measurement": "inhibition at 10 µM", "setting": "hERG potassium channel", "value": 26, "unit": "%"}, {"measurement": "remaining binding at 1 µM", "setting": "FYN", "value": 91, "unit": "%"}, {"measurement": "% Inh.", "setting": "Phorbol Ester", "value": 8, "unit": "%"}, {"measurement": "remaining binding at 1 µM", "setting": "MST2", "value": 96, "unit": "%"}]}
